Bridge positions count the residues as written; N and C are the ends. Square brackets hold non-standard residues; d marks the D form. Peptide text beside a SMILES is read from it. R8 = C=CCCCCCC[C@@](C)(N)C(=O)O; S5 = C=CCCC[C@](C)(N)C(=O)O; Nle = CCCC[C@H](N)C(=O)O
Tests used:
[1] = target: T1, deubiquitinase enzyme USP7 (Homo sapiens, UniProt Q93009); experiment: Deubiquitination of p53 by USP7 in the reconstitution assay; format: biochemical; conditions: peptide 30 μM
T1 construct: purchased BostonBiochem E-519
Experimental: In Vitro Ubiquitin Pathway Reconstitution Assay: Reactions containing recombinant His-p53 (0.1 μM), in the presence or absence of peptide (30 μM), UBA1 (0.1 μM), UBE2D (1 μM), HDM2 (1 μM), ubiquitin (1 μM) and ATP (10 mM) (all Boston Biochem K-200B), preactivated Ub-UBEA2 (3 μM) (Boston Biochem E2-802), and USP7 (1 μM) (BostonBiochem E-519), as indicated, were mixed and incubated for 2 h at 37° C. in a final volume of […] followed by denaturation by boiling in SDS-containing loading dye for 10 min at 90° C. Samples were resolved by […] gel electrophoresis and transferred to nitrocellulose membrane. Membranes were blocked with 3% milk for 1 h, incubated overnight in PBS containing 3% BSA and mouse p53 antibody (Boston Biochem K-200B) at a 1:1000 dilution, washed in PBS containing 0.1% Tween-20, and then incubated in PBS containing 3% BSA and anti-mouse secondary antibody (BioRad AAC10P) at a 1:5000 dilution for 1 hour at room temperature. Membranes were again washed in PBS containing 0.1% Tween-20 and imaged using Amersham ECL Prime (GE Life Sciences) on an Amersham Imager 680 (GE Life Sciences).

[2] = Circular dichroism, α-helicity; format: physicochemical; conditions: in solution
Experimental: Assays to Determine α-Helicity: Compounds are dissolved in an aqueous solution (e.g., 5 mM potassium phosphate solution at pH 7, or distilled H2O, to concentrations of 25-50 μM). Circular dichroism (CD) spectra are obtained on a spectropolarimeter (e.g., Jasco J-710, Aviv) using standard measurement parameters (e.g., temperature, 20° C.; wavelength, 190-260 nm; step resolution, 0.5 nm; speed, 20 nm/sec; accumulations, 10; response, 1 sec; bandwidth, 1 nm; path length, 0.1 cm). The α-helical content of each peptide is calculated by dividing the mean residue ellipticity by the reported value for a model helical decapeptide (Yang et al., Methods Enzymol. 130:208 (1986)).
Circular Dichroism: Acetylated peptides were dissolved in 10% (vol/vol) acetonitrile in water for circular dichroism analyses, performed on an Aviv Biomedical spectrophotometer, as reported (see Bird et. al., Methods in Enzymol., 446:369-386 (2008)).

T1 sequence (Q93009 whole entry): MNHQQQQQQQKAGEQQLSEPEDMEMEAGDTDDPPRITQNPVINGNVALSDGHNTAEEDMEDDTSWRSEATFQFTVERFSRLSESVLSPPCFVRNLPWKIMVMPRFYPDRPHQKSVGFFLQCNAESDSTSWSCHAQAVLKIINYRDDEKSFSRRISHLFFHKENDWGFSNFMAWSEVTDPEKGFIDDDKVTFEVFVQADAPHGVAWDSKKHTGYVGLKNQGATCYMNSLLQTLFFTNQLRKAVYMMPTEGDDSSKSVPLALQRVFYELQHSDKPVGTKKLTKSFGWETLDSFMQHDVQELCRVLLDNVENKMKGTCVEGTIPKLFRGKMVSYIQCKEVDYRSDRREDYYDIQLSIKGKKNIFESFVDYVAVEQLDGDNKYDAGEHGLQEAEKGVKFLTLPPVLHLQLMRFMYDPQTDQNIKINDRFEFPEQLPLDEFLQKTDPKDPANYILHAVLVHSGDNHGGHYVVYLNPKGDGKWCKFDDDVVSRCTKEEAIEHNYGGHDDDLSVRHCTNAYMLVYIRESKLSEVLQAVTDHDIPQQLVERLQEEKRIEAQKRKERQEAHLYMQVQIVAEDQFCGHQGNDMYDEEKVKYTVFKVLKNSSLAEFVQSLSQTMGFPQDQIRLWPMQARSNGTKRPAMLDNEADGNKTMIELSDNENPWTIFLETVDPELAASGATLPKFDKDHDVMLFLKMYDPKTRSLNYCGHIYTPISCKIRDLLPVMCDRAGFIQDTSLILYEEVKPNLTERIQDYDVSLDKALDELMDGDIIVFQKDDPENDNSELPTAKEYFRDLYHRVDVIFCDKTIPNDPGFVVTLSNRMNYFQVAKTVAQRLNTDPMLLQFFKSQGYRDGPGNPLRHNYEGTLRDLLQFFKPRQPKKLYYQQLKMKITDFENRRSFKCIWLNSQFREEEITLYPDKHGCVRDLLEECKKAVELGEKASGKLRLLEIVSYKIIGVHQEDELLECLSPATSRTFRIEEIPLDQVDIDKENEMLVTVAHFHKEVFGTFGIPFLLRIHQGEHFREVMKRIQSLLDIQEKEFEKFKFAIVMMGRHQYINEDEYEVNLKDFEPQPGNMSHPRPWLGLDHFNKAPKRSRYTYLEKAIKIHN

CCCC[C@H](NC(C)=O)C(=O)N[C@@H](CO)C(=O)N[C@H](C(=O)N1CCC[C@H]1C(=O)N[C@]1(C)CCCCCCC=CCCC[C@@](C)(C(=O)N[C@@H](Cc2ccccc2)C(=O)N[C@@H](CCCCN)C(=O)N[C@@H](CCCNC(=N)N)C(=O)N[C@@H](CC(C)C)C(=O)N[C@@H](CCC(N)=O)C(N)=O)NC(=O)[C@H](CCCNC(=N)N)NC(=O)[C@H](CCCC)NC(=O)[C@H](CC(C)C)NC(=O)[C@H](CCCNC(=N)N)NC(=O)[C@H](CCCNC(=N)N)NC(=O)[C@H](CCCNC(=N)N)NC1=O)[C@@H](C)O [SAH-UBE2A-11, BSTPX1RRRLBRX2FKRLQ] (Ac-[Nle]STP[R8]RRRL[Nle]R[S5]FKRLQ-NH2; staple 5-12)
activity of deubiquitinase USP7 against p53 [1]: no effect on the activity of the deubiquitinase enzyme USP7 against p53
activity of deubiquitinase USP7 against p53 ([1]; listed as SAH-UBE2A): regardless of SAH-UBE2A presence
helicity / helical content [2]: 54%
